Laboratory results reported in US5240934A, “Quinoline derivatives” (priority 1990, dated 1993).
Where a name gives a salt, the structure may show the parent alone.

Legend:
acetylcholinesterase = acetylcholinesterase (Homo sapiens, UniProt P22303); test: Inhibitive effect on acetylcholinesterase activity (anti-acetylcholinesterase activity); assay type: biochemical
Method: Pharmacological action of the compound of the present invention was tested using several compounds prepared in Examples presented hereinafter and 9-amino-1,2,3,4-tetrahydroacridine (Tacrine) as a comparative compound.
Specific activities for the tested compounds were calculated using the following equation. [formula]

[1] = test system: Amnesia Induced by Scopolamine in Mice; test: Effects on amnesia induced by scopolamine in mice (passive avoidance test); assay type: in vivo, Male ddy mice; conditions: p.o., 30 min before scopolamine 1 mg/kg i.p.
Method: Male ddy mice, 6-7 week old, were used as subjects. A conventional two-compartment box was used for the passive avoidance test.
Tested compounds were given p.o. 30 minutes before scopolamine (1 mg/kg, i.p.). At 30 minutes after the scopolamine treatment, scrambled foot-schock (2 mA for 3 seconds) was applied to the mouse immediately after entry into the dark compartment. Retention was measured 6 hours after the training and was expressed as the mean latency to enter the dark compartment, with a cut-off point at 300 seconds. Percent improvement for the tested compounds were evaluated taking the difference between the retention latency of the untreated group and that of the control group as 100%.

[2] = test system: Amnesia Induced by Scopolamine in Rats; test: Effects on amnesia induced by scopolamine in rats (passive avoidance test); assay type: in vivo, Male Wister rats; conditions: p.o., 15 min after scopolamine hydrochloride 0.5 mg/kg i.p.
Method: Male Wister rats, 8 week old, were used as subjects. A conventional two-compartment box was used for the passive avoidance test.
Tested compounds were given p.o. 15 minutes after scopolamine hydrochloride (0.5 mg/kg, i.p.). At 15 minutes after the tested compound treatment, scrambled foot-schock (0.5 mA for 3 seconds) was applied to the rat immediately after entry into the dark compartment. Retention was measured 24 hours after the training and was expressed as the mean latency to enter the dark compartment, with a cut-off point at 600 seconds. Percent improvement for the tested compounds was evaluated taking the difference between the retention latency of the untreated group and that of the control group as 100%.

[3] = test system: senile dementia patients of Alzheimer type; conditions: Tacrine and lecithin; The New England Journal of Medicine, 315, 1241 (1986); cited from earlier work

Chain of acetylcholinesterase (P22303 32-614): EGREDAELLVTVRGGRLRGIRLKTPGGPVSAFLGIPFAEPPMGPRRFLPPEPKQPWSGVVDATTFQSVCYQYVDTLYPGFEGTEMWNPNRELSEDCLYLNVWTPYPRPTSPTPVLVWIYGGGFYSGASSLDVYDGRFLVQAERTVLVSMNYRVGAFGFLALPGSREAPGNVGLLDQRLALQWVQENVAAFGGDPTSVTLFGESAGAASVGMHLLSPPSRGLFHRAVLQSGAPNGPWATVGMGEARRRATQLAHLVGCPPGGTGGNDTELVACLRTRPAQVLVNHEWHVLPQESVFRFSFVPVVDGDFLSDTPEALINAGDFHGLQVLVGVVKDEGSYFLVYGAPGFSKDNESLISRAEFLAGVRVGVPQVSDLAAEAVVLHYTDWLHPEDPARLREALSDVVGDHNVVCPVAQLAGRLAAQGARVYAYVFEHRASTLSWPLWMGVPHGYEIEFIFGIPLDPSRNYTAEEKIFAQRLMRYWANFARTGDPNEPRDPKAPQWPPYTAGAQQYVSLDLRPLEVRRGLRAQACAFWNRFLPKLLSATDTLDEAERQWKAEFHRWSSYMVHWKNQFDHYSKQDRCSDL

Compound	Anti-acetylcholinesterase Activity (Specific Activity) (acetylcholinesterase)	Percent Improvement ([1]; 0.01 mg/kg) [%]	Percent Improvement ([1]; 0.3 mg/kg) [%]	Percent Improvement ([1]; 0.1 mg/kg) [%]	Percent Improvement ([2]; 0.03 mg/kg) [%]	Percent Improvement ([2]; 0.1 mg/kg) [%]	Percent Improvement ([2]; 0.3 mg/kg) [%]	Percent Improvement ([1]; 0.03 mg/kg) [%]	improvement in symptoms of senile dementia patients of Alzheimer type [3]	Percent Improvement ([1]; 1.0 mg/kg) [%]
N#Cc1ccccc1NC1=CC(=O)N(CCC2CCN(Cc3ccccc3)CC2)C1 [Compound 2, N-(1-(4-(1-benzylpiperidyl)ethyl)-2-oxo-3-pyrrolin-4-yl)-2-aminobenzonitrile]	7.7	10.0	72.8	–	–	–	–	–	–	–
N#Cc1ccccc1NC1=CC(=O)N(CCCC2CCN(Cc3ccccc3)CC2)C1 [Compound 3, N-(1-(4-(1-benzylpiperidyl)propyl)-2-oxo-3-pyrrolin-4-yl)-2-aminobenzonitrile]	13.5	–	53.4	16.0	–	–	–	–	–	–
Nc1c2c(nc3ccccc13)CN(CCC1CCN(Cc3ccccc3)CC1)C2=O [Compound 7, 9-Amino-2-(4-(1-benzylpiperidyl)ethyl)-2,3-dihydropyrrolo-[3,4-b]quinolin-1-one]	1.94	–	–	70.2	36.1	68.9	69.8	52.0	–	–
Cl.Cl.Nc1c2c(nc3ccccc13)CCC(CCC1CCN(Cc3ccccc3)CC1)C2=O (stereo not drawn) [Compound 14, 9-amino-2-(2-(1-benzylpiperidin-4-yl)ethyl)-1,2,3,4-tetrahydroacridin-1-one dihydrochloride]	5.00	–	–	71.9	–	0	50.8	50.0	–	–
Nc1c2c(nc3ccccc13)CCC(CCCCC1CCN(Cc3ccccc3)CC1)C2=O (stereo not drawn) [Compound 46, 9-Amino-2-(4-(1-benzylpiperidin-4-yl)butyl)-1,2,3,4-tetrahydroacridin-1-onedihydrochloride]	47.62	–	–	–	–	32.3	39.1	–	–	–
O=C1c2c(nc3ccccc3c2O)CN1CCC1CCN(Cc2ccccc2)CC1 [Compound 61, 9-hydroxy-2-(4-(1-benzylpiperidyl)ethyl)-2,3-dihydropyrrolo[3,4-b]quinolin-1-one]	–	–	–	–	33.0	86.1	86.5	–	–	–
COc1c2c(nc3ccccc13)CN(CCC1CCN(Cc3ccccc3)CC1)C2=O [Compound 67, 9-methoxy-2-(4-(1-benzylpiperidyl)ethyl)-2,3-dihydropyrrolo[3,4-b]quinolin-1-one]	9.52	–	–	–	50.4	92.0	95.8	–	–	–
Nc1c2c(nc3ccccc13)CCCC2 [Tacrine, 9-amino-1,2,3,4-tetrahydroacridine, reference compound]	–	–	–	0	–	–	–	–	effectiveness	26.9
